Results taken from patent publication US12203088B2, “Root-secreted peptide PEP1 in rice and gene encoding the same and use thereof” (ZHEJIANG UNIVERSITY, priority 2021, dated 2025).

Columns and labels:
rice seedlings = assay: Treatment of rice seedlings with synthetic PEP1, primary root length; format: in vivo, Oryza sativa L. ssp. Japonica cv. Xiushui134; conditions: wild-type seedlings, different concentrations of synthetic PEP1, treatment from sowing for 7 days
Description: Different letters indicate significant differences (P<0.01, ANOVA, LSD test);

[1] = test system: OsPEP1 RNAi transgenic plants; assay: Exogenous PEP1 on root tips of OsPEP1 RNAi transgenic plants; format: in vivo, rice Xiushui 134; conditions: transgenic plant Ri2, 10^−6 M PEP1 for 2 days
Description: D is the longitudinal phenotype of the root tip elongation zone (top) and meristem (bottom) of the wild-type WT and the transgenic plant Ri2 […] treated with 10^−6 M PEP1 for 2 days. Bar=100 μm;
(§1) E is the statistics of the apical meristem length indicated in D. Data are means±SD (n≥15 independent seedlings, three biological replicates). Different letters indicate significant differences (P<0.01, ANOVA, LSD test);
F is the statistics of cell length in the elongation zone indicated in D. Data are means±SD (n≥15 independent seedlings, three biological replicates). Different letters indicate significant differences (P<0.01, ANOVA, LSD test).
In the obtained T2 OsPEP1 RNAi transgenic plants, three representative plants (Ri1, Ri2, Ri3) were selected for phenotypic analysis. […] The relative expression levels of endogenous OsPEP1 in Xiushui 134 and those OsPEP1 RNAi transgenic plants (Ri1, Ri2, Ri3) were analyzed by quantitative real-time PCR (primers: […] (SEQ ID NO: 9); […] (SEQ ID NO: 10)). […] Additionally, exogenous application of PEP1 could restore the root tip defected phenotype of OsPEP1 RNAi transgenic plants to the Xiushui 134 level (D-F in FIG. 5).

[2] = test system: OsPEP1 overexpressing transgenic plants; assay: Exogenous PEP1 on root tips of OsPEP1 overexpressing transgenic plants; format: in vivo, rice Xiushui 134; conditions: transgenic plant OE2, 10^−6 M PEP1 for 2 days
Description: as §1
F is the statistics of the cell length in the elongation zone indicated in D. Data are means±SD (n≥15 independent seedlings, three biological replicates). Different letters indicate significant differences (P<0.01, ANOVA, LSD test).
In the obtained T2 OsPEP1 overexpressing transgenic rice plants, three representative plants (OE1, OE2, OE3) were chosen for phenotypic analysis. […] The relative expression levels of endogenous OsPEP1 in Xiushui 134 and OsPEP1 overexpressing transgenic plants (OE1, OE2, OE3) were analyzed by quantitative real-time PCR (primers: […] (SEQ ID NO: 9); […] (SEQ ID NO: 10)).

rice root tips = assay: Root tip longitudinal sections of wild-type rice after PEP1 treatment; format: in vivo, Oryza sativa L. ssp. Japonica cv. Xiushui134; set-up: length of cells in the elongation zone of rice root tips: dose or concentration left out as unconfirmed; conditions: wild-type plants

**Q.** For “Ser-Asp-Phe-Asp-Arg (SDFDR; Amino acid sequence of PEP1) [rice root-secreted peptide of five amino acids, artificially synthesized for exogenous application]”, which “rice primary root elongation” value (rice seedlings) is on record?
**A.** significantly inhibited rice primary root elongation

**Q.** What about the “restoration of root tip defected phenotype to the Xiushui 134 level” value [1] of the same substance?
**A.** could restore

**Q.** And the “restoration of root tip defected phenotype to the Xiushui 134 level” value [2]?
**A.** could not restore

**Q.** What about the “length of the meristem of rice root tips” value (rice root tips; 106 M PEP1 for 2 days) of the same substance?
**A.** significantly shortened

**Q.** What about the “length of cells in the elongation zone of rice root tips” value (rice root tips; PEP1 for 2 days) of the same substance?
**A.** significantly shortened

**Q.** What about the “changes in the quiescent center” value (rice root tips; root section after PEP1 treatment) of the same substance?
**A.** no significant changes
